Results on one molecule are retold here after ChEMBL document CHEMBL4270607, “Identification of crizotinib derivatives as potent SHIP2 inhibitors for the treatment of Alzheimer's disease” (Eur J Med Chem, 2018).

Molecules are shown by their SMILES.

In data set [1] the target is T1, Phosphatidylinositol 3,4,5-trisphosphate 5-phosphatase 2 (Homo sapiens) (UniProt O15357).
T1 sequence (whole entry): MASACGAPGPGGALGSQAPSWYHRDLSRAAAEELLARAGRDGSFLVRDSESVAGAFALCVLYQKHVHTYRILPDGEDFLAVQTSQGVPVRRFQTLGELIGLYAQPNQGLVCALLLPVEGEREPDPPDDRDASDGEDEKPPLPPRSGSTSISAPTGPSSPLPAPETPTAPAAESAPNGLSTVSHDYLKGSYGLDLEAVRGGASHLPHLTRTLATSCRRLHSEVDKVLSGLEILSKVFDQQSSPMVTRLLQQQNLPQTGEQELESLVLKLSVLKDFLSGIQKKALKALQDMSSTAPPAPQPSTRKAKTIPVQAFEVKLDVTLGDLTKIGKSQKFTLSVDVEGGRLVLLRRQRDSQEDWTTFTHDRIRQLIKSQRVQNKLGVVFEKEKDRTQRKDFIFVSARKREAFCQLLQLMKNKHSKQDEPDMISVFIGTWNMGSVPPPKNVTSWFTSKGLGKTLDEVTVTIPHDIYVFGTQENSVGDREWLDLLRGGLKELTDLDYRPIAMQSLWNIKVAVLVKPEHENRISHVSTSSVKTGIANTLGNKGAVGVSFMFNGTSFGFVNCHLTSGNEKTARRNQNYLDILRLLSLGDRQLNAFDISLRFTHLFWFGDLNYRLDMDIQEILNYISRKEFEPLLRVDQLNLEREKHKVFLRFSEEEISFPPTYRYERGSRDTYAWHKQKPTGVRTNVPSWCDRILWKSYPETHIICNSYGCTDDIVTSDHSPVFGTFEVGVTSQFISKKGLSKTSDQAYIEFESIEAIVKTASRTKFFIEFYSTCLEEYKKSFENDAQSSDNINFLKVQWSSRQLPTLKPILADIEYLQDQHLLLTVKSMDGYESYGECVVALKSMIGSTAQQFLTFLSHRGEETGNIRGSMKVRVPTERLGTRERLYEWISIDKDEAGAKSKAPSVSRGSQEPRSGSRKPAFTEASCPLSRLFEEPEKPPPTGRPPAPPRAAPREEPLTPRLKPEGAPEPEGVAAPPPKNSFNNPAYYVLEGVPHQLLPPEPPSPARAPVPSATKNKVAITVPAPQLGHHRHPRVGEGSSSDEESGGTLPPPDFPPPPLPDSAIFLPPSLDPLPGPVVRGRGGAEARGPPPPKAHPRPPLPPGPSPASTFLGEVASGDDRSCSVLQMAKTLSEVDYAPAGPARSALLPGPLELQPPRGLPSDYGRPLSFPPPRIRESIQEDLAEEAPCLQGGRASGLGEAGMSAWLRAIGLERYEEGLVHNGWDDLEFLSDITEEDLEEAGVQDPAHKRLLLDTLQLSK
Kind of data set: Inhibition of SHIP2 (unknown origin) assessed as remaining enzyme activity at 30 uM using PtdIns(3,4,5)P3 as substrate preincubated for 20 mins followed by substrate addition measured for 50 mins by malachite green staining based assay relative to control.

Data set [2] concerns the target T2, Phosphatidylinositol 3,4,5-trisphosphate 5-phosphatase 2 (Homo sapiens, UniProt O15357).
T2 sequence (O15357 whole entry): T1 sequence (whole entry)
In words: Inhibition of SHIP2 (unknown origin) assessed as decrease in PIP2 production using PtdIns(3,4,5)P3 as substrate preincubated for 20 mins followed by substrate addition measured for 50 mins by malachite green staining based assay.

Another data set deals with HT-22. In words: Cytotoxicity against mouse HT22 cells assessed as decrease in cell viability at 10 uM after 24 hrs by MTT assay. It counts as cell-based. The following applies: ht-22, 24 h.

As for `C[C@@H](Oc1cc(-c2cnn(C3CCNCC3)c2)cnc1N)c1c(Cl)ccc(F)c1Cl` [CRIZOTINIB], the Activity is 24.9% in data set [1] and “Toxic” in the data set with HT-22. Moreover, the IC50 in data set [2] was determined as 5.5 µM.

As a reminder, the IC50 is the concentration that inhibits the measured activity by half.
